# Measurements reported in patent publication US20120016009A1, “Optimized Methods For Delivery Of DSRNA Targeting The PCSK9 Gene” (priority 2008, published 2012).
# In the oligonucleotide strings, read from the 5' end, every base follows the letter of its sugar. An asterisk marks phosphorothioate; unmarked linkages are phosphodiester. Other units and linkages are bracketed, terminal groups are in braces. A string of capitals states the bases alone. [Ab] = 3'-terminal abasic nucleotide; d = 2'-deoxy (DNA); m = 2'-O-methyl; r = 2'-OH (RNA); {P} = phosphate; f = 2'-fluoro
# System: PCSK9 mRNA
# Assay: In vitro screening of modified dsRNAs targeted to PCSK9 (Table 2b; cell type not given)
# Assay type: cell-based
# Details: 30 nM siRNA
# Procedure: For transfection with siRNA, HuH7, HepG2, or HeLa cells were seeded at a density of 2.0×10^4 cells/well in 96-well plates and transfected directly. Transfection of siRNA (30 nM for single dose screen) was carried out with lipofectamine 2000 (Invitrogen GmbH, Karlsruhe, Germany, cat. No. 11668-019) as described by the manufacturer.
# 24 hours after transfection HuH7 and HepG2 cells were lysed and PCSK9 mRNA levels were quantified with the Quantigene Explore Kit (Genosprectra, Dumbarton Circle Fremont, USA, cat. No. QG-000-02) according to the protocol. PCSK9 mRNA levels were normalized to GAP-DH mRNA. For each siRNA eight individual datapoints were collected. siRNA duplexes unrelated to PCSK9 gene were used as control. The activity of a given PCSK9 specific siRNA duplex was expressed as percent PCSK9 mRNA concentration in treated cells relative to PCSK9 mRNA concentration in cells treated with the control siRNA duplex.
# Tables 1b and 2b (and FIG. 6A) summarize the results and provide examples of in vitro screens in different cell lines at different doses. Silencing of PCSK9 transcript was expressed as percentage of remaining transcript at a given dose.
row,Substance,Remaining mRNA in % of controls at siRNA conc. of 30 nM [%]
1,"AD-12058: modified dsRNA, SEQ ID NO:1351/1352 (chain 1 rGmCrCmUrGmGrAmGrUmUrUmArUmUrCmGrGmArA; chain 2 rUrUrCrCrGrArAmUrArArArCrUrCmCrArGrGrCdT*dT)",9
2,"AD-12059: modified dsRNA, SEQ ID NO:1353/1354 (chain 1 rGmCrCmUrGmGrAmGrUmUrUmArUmUrCmGrGmArA; chain 2 mUrUmCrCrGrArAmUrArArArCrUmCmCrArGrGrCdT*dT)",23
3,"AD-12060: modified dsRNA, SEQ ID NO:1355/1356 (chain 1 rGmCrCmUrGmGrAmGrUmUrUmArUmUrCmGrGmArA; chain 2 rUrUrCrCrGmAmArUrAmAmArCrUrCrCrAmGmGmC)",10
4,"AD-12061: modified dsRNA, SEQ ID NO:1357/1358 (chain 1 GCCUGGNAGUUUAUUCGGAATT; chain 2 rUrUrCrCrGmAmArUrAmAmArCrUrCrCrAmGmGmCdT*dT; chain 1: chemistry not given here; sense strand contains an undefined nucleotide n)",7
5,"AD-12062: modified dsRNA, SEQ ID NO:1359/1360 (chain 1 rGmCrCmUrGmGrAmGrUmUrUmArUmUrCmGrGmArAdTdT[Ab]; chain 2 rUrUrCrCrGmAmArUrAmAmArCrUrCrCrAmGmGmCdTdT[Ab])",10
6,"AD-12063: modified dsRNA, SEQ ID NO:1361/1362 (chain 1 rGmCrCmUrGmGrAmGrUmUrUmArUmUrCmGrGmArA; chain 2 rUrUrCrCrGmAmArUrAmAmArCrUrCrCrAmGmGmC*mC*mU)",19
7,"AD-12064: modified dsRNA, SEQ ID NO:1363/1364 (chain 1 GCCUGGNAGUUUAUUCGGAATT; chain 2 rUrUrCrCrGrArAmUrArArArCrUrCmCrArGrGrCdT*dT; chain 1: chemistry not given here; sense strand contains an undefined nucleotide n)",15
8,"AD-12065: modified dsRNA, SEQ ID NO:1365/1366 (chain 1 rGmCrCmUrGmGrAmGrUmUrUmArUmUrCmGrGmArAdTdT[Ab]; chain 2 rUrUrCrCrGrArAmUrArArArCrUrCmCrArGrGrCdTdT[Ab])",16
9,"AD-12066: modified dsRNA, SEQ ID NO:1367/1368 (chain 1 rGmCrCmUrGmGrAmGrUmUrUmArUmUrCmGrGmArA; chain 2 rUrUrCrCrGrArAmUrArArArCrUrCmCrArGrGrC*mC*mU)",20
10,"AD-12067: modified dsRNA, SEQ ID NO:1369/1370 (chain 1 GCCUGGNAGUUUAUUCGGAATT; chain 2 rUrUrCrCrGrArArUrArArArCrUrCrCrArGrGrCdT*dT; chain 1: chemistry not given here)",17
11,"AD-12068: modified dsRNA, SEQ ID NO:1371/1372 (chain 1 rGmCrCmUrGmGrAmGrUmUrUmArUmUrCmGrGmArAdTdT[Ab]; chain 2 rUrUrCrCrGrArArUrArArArCrUrCrCrArGrGrCdTdT[Ab])",18
12,"AD-12069: modified dsRNA, SEQ ID NO:1373/1374 (chain 1 rGmCrCmUrGmGrAmGrUmUrUmArUmUrCmGrGmArA; chain 2 rUrUrCrCrGrArArUrArArArCrUrCrCrArGrGrC*mC*mU)",13
13,"AD-12338: modified dsRNA, SEQ ID NO:1375/1376 (chain 1 fGmCfCmUfGmGfAmGfUmUfUmAfUmUfCmGfGmAfA; chain 2 {P}-mUfUmCfCmGfAmAfUmAfAmAfCmUfCmCfAmGfGmC)",15
14,"AD-12339: modified dsRNA, SEQ ID NO:1377/1378 (chain 1 rGmCrCmUrGmGrAmGrUmUrUmArUmUrCmGrGmArA; chain 2 {P}-mUfUmCfCmGfAmAfUmAfAmAfCmUfCmCfAmGfGmC)",14
15,"AD-12340: modified dsRNA, SEQ ID NO:1379/1380 (chain 1 rGmCmCmUrGrGrArGmUmUmUrAmUmUmCrGrGrArA; chain 2 {P}-mUfUmCfCmGfAmAfUmAfAmAfCmUfCmCfAmGfGmC)",19
16,"AD-12341: modified dsRNA, SEQ ID NO:1381/1382 (chain 1 fGmCfCmUfGmGfAmGfUmUfUmAfUmUfCmGfGmAfAdT*dT; chain 2 {P}-mUfUmCfCmGfAmAfUmAfAmAfCmUfCmCfAmGfGmCdT*dT)",12
17,"AD-12342: modified dsRNA, SEQ ID NO:1383/1384 (chain 1 fGmCfCmUfGmGfAmGfUmUfUmAfUmUfCmGfGmAfAdT*dT; chain 2 rUrUrCrCrGrArAmUrArArArCrUrCmCrArGrGrCdT*dT)",13
18,"AD-12343: modified dsRNA, SEQ ID NO:1385/1386 (chain 1 fGmCfCmUfGmGfAmGfUmUfUmAfUmUfCmGfGmAfAdT*dT; chain 2 mUrUmCrCrGrArAmUrArArArCrUmCmCrArGrGrCdT*dT)",24
19,"AD-12344: modified dsRNA, SEQ ID NO:1387/1388 (chain 1 fGmCfCmUfGmGfAmGfUmUfUmAfUmUfCmGfGmAfAdT*dT; chain 2 rUrUrCrCrGrArArUrArArArCrUrCrCrArGrGrCdT*dT)",9
20,"AD-12345: modified dsRNA, SEQ ID NO:1389/1390 (chain 1 fGmCfCmUfGmGfAmGfUmUfUmAfUmUfCmGfGmAfAdT*dT; chain 2 rUrUrCrCrGrArArUrArArArCrUrCrCrArGrGrC*mC*mU)",12
21,"AD-12346: modified dsRNA, SEQ ID NO:1391/1392 (chain 1 fGmCfCmUfGmGfAmGfUmUfUmAfUmUfCmGfGmAfAdT*dT; chain 2 rUrUrCrCrGmAmArUrAmAmArCrUrCrCrAmGmGmC*mC*mU)",13
22,"AD-12347: modified dsRNA, SEQ ID NO:1393/1394 (chain 1 rGrCrCrUrGrGrArGrUrUrUrArUrUrCrGrGrArAdT*dT; chain 2 {P}-mUfUmCfCmGfAmAfUmAfAmAfCmUfCmCfAmGfGmCdT*dT)",11
23,"AD-12348: modified dsRNA, SEQ ID NO:1395/1396 (chain 1 rGmCmCmUrGrGrArGmUmUmUrAmUmUmCrGrGrArAdT*dT; chain 2 {P}-mUfUmCfCmGfAmAfUmAfAmAfCmUfCmCfAmGfGmCdT*dT)",8
24,"AD-12349: modified dsRNA, SEQ ID NO:1397/1398 (chain 1 GCCUGGNAGUUUAUUCGGAATT; chain 2 {P}-mUfUmCfCmGfAmAfUmAfAmAfCmUfCmCfAmGfGmCdT*dT; chain 1: chemistry not given here; further chemistry not fully specified)",11
25,"AD-12350: modified dsRNA, SEQ ID NO:1399/1400 (chain 1 fGmCfCmUfGmGfAmGfUmUfUmAfUmUfCmGfGmAfAdTdT[Ab]; chain 2 {P}-mUfUmCfCmGfAmAfUmAfAmAfCmUfCmCfAmGfGmCdTdT[Ab])",17
